Test results as given in patent US8946231B2, “P2X3, receptor antagonists for treatment of pain” (Merck Sharp & Dohme Corp., priority 2009, dated 2015).

Each molecule was assayed against T1, human P2X3 (Homo sapiens, UniProt P56373) (assay: Intracellular Calcium Measurement to Assess Antagonist Affinity (FLIPR, Fluo-4)). Settings: cells expressing human P2X3; agonist α,β-meATP at EC50; antagonist added 10 min before agonist.
T1 construct: expressed in transfected cells
T1 sequence (P56373 1-397): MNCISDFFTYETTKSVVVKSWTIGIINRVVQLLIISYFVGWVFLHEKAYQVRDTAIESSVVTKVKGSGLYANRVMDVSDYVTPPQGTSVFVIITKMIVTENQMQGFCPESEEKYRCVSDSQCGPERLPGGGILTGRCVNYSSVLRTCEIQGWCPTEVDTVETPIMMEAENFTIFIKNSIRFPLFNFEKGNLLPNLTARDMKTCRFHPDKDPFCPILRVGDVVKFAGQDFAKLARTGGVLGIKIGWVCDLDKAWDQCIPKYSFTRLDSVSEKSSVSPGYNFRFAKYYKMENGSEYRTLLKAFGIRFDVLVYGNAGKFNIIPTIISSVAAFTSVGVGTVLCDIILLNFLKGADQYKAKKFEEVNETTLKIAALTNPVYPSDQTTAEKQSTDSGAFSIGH
Format: cell-based
Text: Generation of a Human P2X3 and P2X2/3 Stable Cell Line—Human P2X3 receptor cDNA (Accession number NM_002559) was subcloned as a 5′XhoI and 3′HindIII fragment into the expression vector pcDNA5/FRT (Invitrogen). Human P2X2 receptor cDNA (Accession number NM_174873) was subcloned as a 5′EcoRI and 3′NotI fragment into the expression vector pIRESneo2 (BD Biosciences Clontech). The human P2X3 expression construct was transfected using Lipofectamine 2000 (Invitrogen) into Ftp-in—293 cells (Invitrogen) according to the manufacturer's directions. Cells positive for flp-mediated recombination of […] P2X3 were selected using 150 μg/ml hygromycin. The stable human P2X3 cell line was co-transfected with the human P2X2 expression construct using Lipofectamine 2000 as above and co-transfected cells selected using […] hygromycin and 1 mg/ml G418. The stable P2X3 cell line was propagated in DMEM, 10% FBS, 100 μg/ml hygromycin, and 100 units/ml penicillin and 100 μg/ml streptomycin, and maintained at 37° and 95% humidity. The stable P2X213 cell line was propagated as above with the addition of 500 μg/ml G418.
Intracellular Calcium Measurement to Assess Antagonist Affinity—A fluorescent imaging plate reader (FLIPR; Molecular Devices) was used to monitor intracellular calcium levels using the calcium-chelating dye Fluo-4 (Molecular Probes). The excitation and emission wavelengths used to monitor fluorescence were 488 nm and 530 nm, respectively. Cells expressing either human P2X3 or human P2X2/3 were plated at a density of 20,000 cells/well (20 μl/well) in 384-well black-walled plates approximately 20 hours before beginning the assay. […] During this period fluorescence data is collected at 3 sec intervals followed by 10 sec intervals. […] Following agonist addition fluorescence was measured at 5 sec intervals and analyzed based on the increase in peak relative fluorescence units (RFU) compared to the basal fluorescence. Peak fluorescence was used to determine the inhibitory effect at each concentration of antagonist by the following equation: % Inhibition=100*(1−((RFU(drug)−RFU(control)/(RFU(DMSO only)−RFU(control)))) In vitro Electrophysiological Assay—Cells expressing human P2X3 receptors were grown to a confluence of 65-85% 20 to 32 hours prior to assay. The cells were dissociated with trypsin, centrifuged, and resuspended in bath solution at a cell density of 1×10^6 cells/ml and loaded onto PatchXpress. The bath solution contained 150 mM NaCl, 4 mM KCl, 2 mM CaCl2, 1.2 mM MgCl2, 10 mM HEPES, and 11.1 mM glucose, at pH 7.2. […]

Question: How did the IC50 turn out when `C[C@@H](NC(=O)c1cn(-c2ccc(F)cn2)nc1-c1cnoc1)c1ccc(C(F)(F)F)[n+]([O-])c1` [Example 1.103] was run?
Answer: 125 nM

Question: How did the IC50 turn out when `CC(C)Cc1nn(-c2ccc(F)cn2)cc1C(=O)N[C@H](C)c1ccc(C(F)(F)F)[n+]([O-])c1` [Example 1.109] was run?
Answer: 34 nM

Question: Which IC50 does the source give for `C[C@@H](NC(=O)c1cn(-c2ccc(F)cn2)nc1-c1ccccc1)c1ccc(C(F)(F)F)[n+]([O-])c1` [Example 1.74, 1-(5-Fluoropyridin-2-yl)-N-{(1R)-1-[1-oxido-6-(trifluoromethyl)pyridin-3-yl]ethyl}-3-phenyl-1H-pyrazole-4-carboxamide] here?
Answer: 53 nM

Question: For `Cc1ccc(-c2nc(-c3ccccc3)c(C(=O)N[C@H](C)c3ccc(C(F)(F)F)[n+]([O-])c3)o2)nc1` [Example 2.5], which IC50 is on record?
Answer: 84 nM
